Measured values as given in the supplement of paper PMC11061612.

Key:
Experiment in all cases: combination Emax (second highest fraction inhibited in the dose matrix, 72 h); higher = more inhibition; extreme values may be limits of the assay
SK-N-FI (Neuroblastoma) = system: SK-N-FI (Neuroblastoma)
Method in brief: (§1)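 Bliss excess equals the observed combination effect minus the expected value EA + EB − EA·EB, where EA and EB are the effects of each agent alone. Combination Emax is the second-highest inhibition within the matrix. Inhibition was scaled from CellTiter-Glo 2.0 luminescence, with 0 set by vehicle wells and 1 by blank wells, after 72 hours of two-drug dosing of cells plated in 1536-well plates.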

[1] = system: HPAC (Pancreatic Carcinoma)
Method in brief: as §1

[2] = system: TE-5 (Esophageal Squamous Cell Carcinoma)
Method in brief: as §1

CAL-78 (Chondrosarcoma) = system: CAL-78 (Chondrosarcoma)
Method in brief: as §1

[3] = system: EM-2 (Chronic Myelogenous Leukemia)
Method in brief: as §1

[4] = system: MDA-MB-157 (Breast Carcinoma)
Method in brief: as §1

J82 (Bladder Carcinoma) = system: J82 (Bladder Carcinoma)
Method in brief: as §1

[5] = system: NCI-H1299 (Non-Small Cell Lung Carcinoma)
Method in brief: as §1

[6] = system: MFH-ino (Other Solid Carcinomas)
Method in brief: as §1

[7] = system: NCI-H1694 (Small Cell Lung Carcinoma)
Method in brief: as §1

[8] = system: SNU-C5 (Colorectal Carcinoma)
Method in brief: as §1

[9] = system: SW1990 (Pancreatic Carcinoma)
Method in brief: as §1

[10] = system: SW1783 (Low Grade Glioma)
Method in brief: as §1

[11] = system: OCI-AML2 (Acute Myeloid Leukemia)
Method in brief: as §1

NCI-H2595 (Mesothelioma) = system: NCI-H2595 (Mesothelioma)
Method in brief: as §1

[12] = system: U-266 (Plasma Cell Myeloma)
Method in brief: as §1

[13] = system: CTV-1 (T-Lymphoblastic Leukemia)
Method in brief: as §1

[14] = system: COR-L23 (Non-Small Cell Lung Carcinoma)
Method in brief: as §1

[15] = system: JiyoyeP-2003 (Burkitt's Lymphoma)
Method in brief: as §1

[16] = system: KATOIII (Gastric Carcinoma)
Method in brief: as §1

SMILES | combination Emax (SK-N-FI (Neuroblastoma)) | combination Emax [1] | combination Emax [2] | combination Emax (CAL-78 (Chondrosarcoma)) | combination Emax [3] | combination Emax [4] | combination Emax (J82 (Bladder Carcinoma)) | combination Emax [5] | combination Emax [6] | combination Emax [7] | combination Emax [8] | combination Emax [9] | combination Emax [10] | combination Emax [11] | combination Emax (NCI-H2595 (Mesothelioma)) | combination Emax [12] | combination Emax [13] | combination Emax [14] | combination Emax [15] | combination Emax [16]
CC(=O)Nc1cccc(-n2c(=O)n(C3CC3)c(=O)c3c(Nc4ccc(I)cc4F)n(C)c(=O)c(C)c32)c1 [Trametinib] + Cc1nc(-c2cn3c(n2)-c2ccc(-c4cnn(C(C)(C)C(N)=O)c4)cc2OCC3)n(C(C)C)n1 [Taselisib] (first compound max 1 µM, 7x7, partner max 10 µM) | 0.954 | 1 | 0.767 | 0.512 | 0.935 | 0.336 | 0.593 | 0.68 | 0.583 | 0.324 | 0.794 | 0.971 | 0.7 | 1 | 0.404 | 0.796 | 0.96 | 0.919 | 0.544 | 0.793
CN(CCO)CC[C@H](CSc1ccccc1)Nc1ccc(S(=O)(=O)NC(=O)c2ccc(N3CCC([C@@H](O)c4ccccc4-c4ccc(Cl)cc4)CC3)cc2)cc1S(=O)(=O)C(F)(F)F [AZD4320] + C1CN(CCC1(C(=O)N[C@@H](CCO)C2=CC=C(C=C2)Cl)N)C3=NC=NC4=C3C=CN4 [Capivasertib] (first compound max 1 µM, 7x7, partner max 3 µM) | 0.228 | 0.137 | 0.321 | 0.524 | 0.98 | 0.0801 | 0.164 | 0.129 | 0.182 | 0.763 | 0.3 | 0.0829 | 0.44 | 1 | 0.151 | 0.577 | 0.404 | 0.258 | 0.773 | 0.128
Cn1cnc2c(F)c(Nc3ccc(Br)cc3Cl)c(C(=O)NOCCO)cc21 [Selumetinib] + CC(C)n1c(=O)n(C)c2cnc3cc(F)c(-c4ccc(OCCCN5CCCCC5)nc4)cc3c21 [AZD1390] (first compound max 10 µM, 7x7, partner max 0.3 µM) | 0.435 | 0.678 | 0.137 | 0.136 | 0.545 | 0.131 | 0.787 | 0.23 | 0.281 | 0.206 | 0.351 | 0.202 | 0.0665 | 0.993 | 0.191 | 0.532 | 0.331 | 0.268 | 0.191 | 0.475
CS(=O)(=O)CCNCc1ccc(-c2ccc3ncnc(Nc4ccc(OCc5cccc(F)c5)c(Cl)c4)c3c2)o1 [Lapatinib] + C[C@@H](Oc1cc(-c2cnn(C3CCNCC3)c2)cnc1N)c1c(Cl)ccc(F)c1Cl [Crizotinib] (first compound max 10 µM, 7x7, partner max 10 µM) | 0.601 | 0.929 | 0.502 | 0.897 | 1 | 0.493 | 0.662 | 0.492 | 0.25 | 0.291 | 0.764 | 0.331 | 0.248 | 0.915 | 0.458 | 0.495 | 1 | 0.949 | 0.863 | 0.627
CN(CCO)CC[C@H](CSc1ccccc1)Nc1ccc(S(=O)(=O)NC(=O)c2ccc(N3CCC([C@@H](O)c4ccccc4-c4ccc(Cl)cc4)CC3)cc2)cc1S(=O)(=O)C(F)(F)F [AZD4320] + Cc1cc2ncnn2cc1Nc1ncc2c(n1)n(C1CCOCC1)c(=O)n2C [AZD7648] (first compound max 1 µM, 7x7, partner max 10 µM) | 0.201 | 0.321 | 0.531 | 0.46 | 0.99 | 0.0975 | 0.0607 | 0.268 | 0.161 | 0.76 | 0.225 | 0.0867 | 0.366 | 1 | 0.12 | 0.622 | 0.315 | 0.0958 | 0.639 | 0.151
Cn1cnc2c(F)c(Nc3ccc(Br)cc3Cl)c(C(=O)NOCCO)cc21 [Selumetinib] + C=CCn1c(=O)c2cnc(Nc3ccc(N4CCN(C)CC4)cc3)nc2n1-c1cccc(C(C)(C)O)n1 [AZD1775] (first compound max 10 µM, partner max 1 µM) | 0.69 | 0.877 | 0.292 | 0.544 | 0.92 | 0.48 | 0.299 | 0.652 | 0.345 | 0.371 | 0.722 | 0.431 | 0.392 | 1 | 0.18 | 0.847 | 0.963 | 0.722 | 0.947 | 0.451
COc1cccc(OCCCN)c1-c1cc(Nc2cnc(C#N)cn2)n[nH]1 [Prexasertib] + C=CCn1c(=O)c2cnc(Nc3ccc(N4CCN(C)CC4)cc3)nc2n1-c1cccc(C(C)(C)O)n1 [AZD1775] (first compound max 1 µM, partner max 1 µM) | 0.862 | 0.792 | 0.625 | 0.643 | 0.986 | 0.969 | 0.577 | 0.799 | 0.397 | 0.932 | 0.886 | 0.688 | 0.549 | 1 | 0.307 | 0.77 | 1 | 0.652 | 0.984 | 0.55
CC1(C)CCC(CN2CCN(c3ccc(C(=O)NS(=O)(=O)c4ccc(NCC5CCOCC5)c([N+](=O)[O-])c4)c(Oc4cnc5[nH]ccc5c4)c3)CC2)=C(c2ccc(Cl)cc2)C1 [Venetoclax] + Cn1cnc2c(F)c(Nc3ccc(Br)cc3Cl)c(C(=O)NOCCO)cc21 [Selumetinib] (first compound max 1 µM, 7x7, partner max 3 µM) | 0.471 | 0.559 | 0.107 | 0.146 | 0.424 | 0.546 | 0.122 | 0.202 | 0.201 | 0.324 | 0.289 | 0.49 | 0.124 | 1 | 0.129 | 0.722 | 0.293 | 0.2 | 0.304 | 0.186
Cc1c2c(nn1C)CSCc1cc(n(C)n1)CSc1cc(c3ccccc3c1)OCCCc1c(C(=O)O)n(C)c3c-2c(Cl)ccc13 [AZD5991] + CCN(CCO)CCCOc1ccc2c(Nc3cc(CC(=O)Nc4cccc(F)c4)[nH]n3)ncnc2c1 [AZD2811] (first compound max 1 µM, 7x7, partner max 1 µM) | 0.335 | 0.623 | 0.261 | 0.868 | 0.906 | 0.846 | 0.192 | 0.406 | 0.251 | 0.985 | 0.288 | 0.298 | 0.246 | 1 | 0.324 | 0.945 | 0.278 | 0.201 | 0.803 | 0.116
COc1cccc2c1C(=O)c1c(O)c3c(c(O)c1C2=O)C[C@@](O)(C(=O)CO)C[C@@H]3O[C@H]1C[C@H](N)[C@H](O)[C@H](C)O1 [Doxorubicin] + Cc1cc2ncnn2cc1Nc1ncc2c(n1)n(C1CCOCC1)c(=O)n2C [AZD7648] (first compound max 1 µM, 7x7, partner max 10 µM) | 0.373 | 0.633 | 0.678 | 0.542 | 0.978 | 0.805 | 0.41 | 0.66 | 0.608 | 0.921 | 0.724 | 0.303 | 0.481 | 1 | 0.531 | 0.612 | 1 | 0.432 | 0.981 | 0.319
CC1(C)CCC(CN2CCN(c3ccc(C(=O)NS(=O)(=O)c4ccc(NCC5CCOCC5)c([N+](=O)[O-])c4)c(Oc4cnc5[nH]ccc5c4)c3)CC2)=C(c2ccc(Cl)cc2)C1 [Venetoclax] + C1CN(CCC1(C(=O)N[C@@H](CCO)C2=CC=C(C=C2)Cl)N)C3=NC=NC4=C3C=CN4 [Capivasertib] (first compound max 1 µM, 7x7, partner max 3 µM) | 0.302 | 0.148 | 0.255 | 0.263 | 0.338 | 0.535 | 0.259 | 0.171 | 0.258 | 0.179 | 0.318 | 0.576 | 0.342 | 1 | 0.235 | 0.555 | 0.359 | 0.245 | 0.591 | 0.254
CCN(CCO)CCCOc1ccc2c(Nc3cc(CC(=O)Nc4cccc(F)c4)[nH]n3)ncnc2c1 [AZD2811] + O=C(c1cc(Cc2n[nH]c(=O)c3ccccc23)ccc1F)N1CCN(C(=O)C2CC2)CC1 [Olaparib] (first compound max 1 µM, 7x7, partner max 10 µM) | 0.171 | 0.21 | 0.184 | 0.416 | 0.822 | 0.251 | 0.0709 | 0.303 | 0.338 | 0.276 | 0.161 | 0.168 | 0.201 | 0.873 | 0.226 | 0.279 | 0.375 | 0.0799 | 0.315 | 0.12
